These results are taken from patent US8623860B2, “Azetidine derivatives, pharmaceutical compositions and uses thereof” (Boehringer Ingelheim International GmbH, priority 2011, dated 2014).

Sequence of human ACC2 (O00763 129-2458): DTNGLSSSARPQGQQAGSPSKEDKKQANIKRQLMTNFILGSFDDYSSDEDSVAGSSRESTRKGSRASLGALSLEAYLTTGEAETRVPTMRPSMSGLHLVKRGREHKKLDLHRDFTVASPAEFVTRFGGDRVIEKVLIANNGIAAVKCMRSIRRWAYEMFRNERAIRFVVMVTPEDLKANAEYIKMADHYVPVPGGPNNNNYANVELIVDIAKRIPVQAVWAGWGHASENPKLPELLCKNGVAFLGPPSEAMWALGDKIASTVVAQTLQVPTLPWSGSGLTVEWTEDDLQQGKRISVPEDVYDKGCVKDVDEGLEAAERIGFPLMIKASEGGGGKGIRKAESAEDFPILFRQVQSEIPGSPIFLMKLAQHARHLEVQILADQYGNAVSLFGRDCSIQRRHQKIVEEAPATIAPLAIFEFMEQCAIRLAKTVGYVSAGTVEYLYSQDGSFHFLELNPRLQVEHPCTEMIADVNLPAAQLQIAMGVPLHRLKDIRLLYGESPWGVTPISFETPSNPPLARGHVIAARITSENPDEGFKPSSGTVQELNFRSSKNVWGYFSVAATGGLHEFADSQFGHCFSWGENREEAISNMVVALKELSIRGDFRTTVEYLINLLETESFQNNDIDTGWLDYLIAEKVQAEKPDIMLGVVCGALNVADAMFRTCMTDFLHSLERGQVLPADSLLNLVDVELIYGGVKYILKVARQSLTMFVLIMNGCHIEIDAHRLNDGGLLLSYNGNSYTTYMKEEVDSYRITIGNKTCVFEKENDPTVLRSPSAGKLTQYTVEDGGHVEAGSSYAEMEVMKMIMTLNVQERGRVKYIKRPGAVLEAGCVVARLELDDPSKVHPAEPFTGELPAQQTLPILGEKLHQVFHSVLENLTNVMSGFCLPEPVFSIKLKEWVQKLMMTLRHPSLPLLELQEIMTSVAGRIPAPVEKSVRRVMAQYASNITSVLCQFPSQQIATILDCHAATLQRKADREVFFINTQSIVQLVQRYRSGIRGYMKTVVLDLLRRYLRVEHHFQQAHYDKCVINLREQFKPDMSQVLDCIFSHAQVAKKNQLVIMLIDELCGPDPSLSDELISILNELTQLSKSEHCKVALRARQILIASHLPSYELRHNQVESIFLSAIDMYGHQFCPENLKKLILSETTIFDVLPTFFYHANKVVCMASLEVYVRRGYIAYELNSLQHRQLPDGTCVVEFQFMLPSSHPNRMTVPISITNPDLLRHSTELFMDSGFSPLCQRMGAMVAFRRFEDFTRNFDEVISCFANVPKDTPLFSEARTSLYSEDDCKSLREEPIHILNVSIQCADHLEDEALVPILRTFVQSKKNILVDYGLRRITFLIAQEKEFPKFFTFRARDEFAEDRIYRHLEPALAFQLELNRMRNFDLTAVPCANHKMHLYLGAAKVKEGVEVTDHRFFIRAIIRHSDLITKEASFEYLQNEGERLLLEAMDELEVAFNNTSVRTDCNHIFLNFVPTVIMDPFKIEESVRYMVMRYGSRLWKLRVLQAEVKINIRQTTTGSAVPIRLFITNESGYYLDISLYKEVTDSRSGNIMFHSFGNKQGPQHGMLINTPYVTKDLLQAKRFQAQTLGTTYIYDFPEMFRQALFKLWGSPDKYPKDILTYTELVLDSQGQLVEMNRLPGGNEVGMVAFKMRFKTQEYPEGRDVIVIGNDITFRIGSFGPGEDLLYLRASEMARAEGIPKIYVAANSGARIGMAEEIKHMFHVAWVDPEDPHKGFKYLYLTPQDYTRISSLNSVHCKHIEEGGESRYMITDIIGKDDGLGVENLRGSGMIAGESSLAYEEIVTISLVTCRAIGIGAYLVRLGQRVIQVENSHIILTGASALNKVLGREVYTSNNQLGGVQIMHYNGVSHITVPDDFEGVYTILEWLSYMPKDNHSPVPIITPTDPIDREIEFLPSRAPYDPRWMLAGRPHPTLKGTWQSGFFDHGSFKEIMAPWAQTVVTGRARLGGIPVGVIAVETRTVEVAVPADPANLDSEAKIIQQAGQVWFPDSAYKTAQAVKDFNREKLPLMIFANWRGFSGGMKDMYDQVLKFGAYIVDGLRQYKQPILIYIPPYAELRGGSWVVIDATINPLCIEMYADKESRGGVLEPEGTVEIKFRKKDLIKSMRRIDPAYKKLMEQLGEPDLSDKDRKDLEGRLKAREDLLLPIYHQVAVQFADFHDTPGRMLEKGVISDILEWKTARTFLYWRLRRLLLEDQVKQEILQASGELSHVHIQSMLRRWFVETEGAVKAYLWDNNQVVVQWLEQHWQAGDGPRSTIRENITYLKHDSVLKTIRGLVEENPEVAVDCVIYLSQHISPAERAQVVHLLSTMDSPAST

In this experiment the target is human ACC2 (Homo sapiens (Human), UniProt O00763). The experiment can be described thus: ACC2 assay, spectrophotometric 384 well assay (NADH-linked, coupled lactate dehydrogenase/pyruvate kinase reaction). Format: biochemical. The note with it: hACC2 construct lacking the 128 N-terminal amino acids; 25° C., 340 nm, 15 minutes. As for the experimental part:
Spectrophotometric 384 Well Assay
Malonyl CoA formation by acetyl CoA carboxylases is stoichometrically linked to the consumption of ATP. ACC2 activity is measured in a NADH-linked kinetic method measuring ADP generated during the ACC reaction using a coupled lactate dehydrogenase/pyruvate kinase reaction.
For biological testing, a human ACC2 construct which lacks the 128 amino acids at the N-terminus for increased solubility (nt 385-6966 in Genbank entry AJ575592) is cloned. The protein is then expressed in insect cells using a baculoviral expression system. Protein purification is performed by anion exchange.
All compounds are dissolved in dimethyl sulfoxide (DMSO) to a concentration of 10 mM.
Assay reactions are then carried out in 384-well plates, with hACC2 in an appropriate dilution and at final assay concentrations (f.c.) of 100 mM Tris (pH 7.5), 10 mM trisodium citrate, 25 mM KHCC3, 10 mM MgCl2, 0.5 mg/ml BSA, 3.75 mM reduced L-glutathione, 15 U/ml lactate dehydrogenase, 0.5 mM phosphoenolpyruvate, 15 U/ml pyruvate kinase, compounds at different concentrations at final DMSO concentrations of 1%.
The enzymatic reaction is then started by addition of a mixture of NADH, acetyl Coenzyme A (both 200 μM f.c.) and ATP (500 uM f.c.). The decrease of the optical density (slope S) is then determined at 25° C. at a wavelength of 340 nm over 15 minutes in a spectrophotometric reader.
Each assay microtiter plate contains wells with vehicle instead of compound as controls for the non-inhibited enzyme (100% CTL; ‘HIGH’) and wells without acetyl-CoA as controls for non-specific NADH degradation (0% CTL; ‘LOW’).
The slope S is used for calculation of % CTL=(S(compound)−S(‘LOW’))/(S(‘HIGH’)−S(‘LOW’))*100. Compounds will give values between 100% CTL (no inhibition) and 0% CTL (complete inhibition).
For IC50 value determination, the sample slope in the presence of the test compound after subtraction of the low controls (S(compound)−S(‘LOW’)) are used.
An IC50 value is derived from the compound slopes at different dosages after subtraction of the low controls (S(compound)−S(‘LOW’)) by non-linear regression curve fitting (equation y=(A+((B−A)/(1+((C/x)^D))))).
In the following table the activity expressed as IC50 (μM) of compounds according to the invention is presented wherein the IC50 values are determined in the ACC2 assay as described hereinbefore. The term “Ex.” refers to the example numbers according to the following experimental section.
What is called IC50 is the midpoint of a concentration-inhibition curve. Consider `CC(=O)Nc1nc(C)c(C(=O)N[C@@H](C)c2ccc(C3CN(c4ccc(OCC5CC5)cc4)C3)cc2)s1` [Example 3.04], for which half-maximal inhibition (IC50) required 250 nM. To `CC(=O)Nc1cncc(C(=O)NC(C)Cc2ccc(C3CN(c4ccc(OCC5CC5)cc4)C3)cc2)c1` (centres unmarked) [Example 3.05] belongs 1730 nM; to `C=CCC(=O)NC(C)Cc1ccc(C2CN(c3ccc(OCC4CC4)cc3)C2)cc1` (centres unmarked) [Example 3.06], 1070 nM. `CC(Cc1ccc(C2CN(c3ccc(OCC4CC4)cc3)C2)cc1)NC(=O)C1(C#N)CC1` (centres unmarked) [Example 3.07] returned an IC50 of 2580 nM.

As to `CCCC(=O)NC(C)Cc1ccc(C2CN(c3ccc(OCC4CC4)cc3)C2)cc1` (centres unmarked) [Example 3.08], the IC50 worked out at 3070 nM. `CC(Cc1ccc(C2CN(c3ccc(OCC4CC4)cc3)C2)cc1)NC(=O)C(C)F` (centres unmarked) [Example 3.09] registered an IC50 of 2510 nM. The same measure for `CCC(=O)NC(C)Cc1ccc(C2CN(c3ccc(OCC4CC4)cc3)C2)cc1` (centres unmarked) [Example 3.10]: 890 nM; for `CC(Cc1ccc(C2CN(c3ccc(OCC4CC4)cc3)C2)cc1)NC(=O)C(C)(F)F` (centres unmarked) [Example 3.11]: 1450 nM. Regarding `CC(Cc1ccc(C2CN(c3ccc(OCC4CC4)cc3)C2)cc1)NC(=O)C(F)F` (centres unmarked) [Example 3.12], it took 2730 nM to reach half-maximal inhibition (IC50).

For the molecule `CC(Cc1ccc(C2CN(c3ccc(OCC4CC4)cc3)C2)cc1)NC(=O)Cc1cc[nH]c1` (centres unmarked) [Example 3.13], the IC50 was determined as 2970 nM. The molecule `CC(Cc1ccc(C2CN(c3ccc(OCC4CC4)cc3)C2)cc1)NC(=O)CF` (centres unmarked) [Example 3.14] returned an IC50 of 1770 nM. In turn, `CC(=O)Nc1nc(C)c(C(=O)NC(C)Cc2ccc(C3CN(c4ccc(OCC5CC5)cc4)C3)cc2)s1` (centres unmarked) [Example 3.15] came in with an IC50 of 1050 nM.

Turning to `COCC(=O)NC(C)Cc1ccc(C2CN(c3ccc(OCC4CC4)cc3)C2)cc1` (centres unmarked) [Example 3.16], the IC50 turned out to be 3050 nM. `Cc1nocc1C(=O)NC(C)Cc1ccc(C2CN(c3ccc(OCC4CC4)cc3)C2)cc1` (centres unmarked) [Example 3.17] returned an IC50 of 2790 nM.

In turn, `CC(Cc1ccc(C2CN(c3ccc(OCC4CC4)cc3)C2)cc1)NC(=O)CCC#N` (centres unmarked) [Example 3.18] registered an IC50 of 3050 nM. To `C=CCC(=O)NC(C)Cc1ccc(C2CN(c3ccc4c(c3)OCCO4)C2)cc1` (centres unmarked) [Example 3.19] belongs 2880 nM; to `C[C@H](NC(=O)C1CCOC1)c1ccc(C2CN(c3ccc(OCC4CC4)cc3)C2)cc1` (some centres unmarked) [Example 3.20], 1020 nM; to `C[C@H](NC(=O)Cc1cc[nH]c1)c1ccc(C2CN(c3ccc(OCC4CC4)cc3)C2)cc1` [Example 3.21], 2960 nM. To `CCOCC(=O)N[C@@H](C)c1ccc(C2CN(c3ccc(OCC4CC4)cc3)C2)cc1` [Example 3.22] belongs 2580 nM. To `COC1CC(C(=O)N[C@@H](C)c2ccc(C3CN(c4ccc(OCC5CC5)cc4)C3)cc2)C1` (some centres unmarked) [Example 3.23] belongs 2650 nM; to `C[C@H](NC(=O)Cc1cccnc1)c1ccc(C2CN(c3ccc(OCC4CC4)cc3)C2)cc1` [Example 3.24], 1670 nM.

In turn, `Cc1ncsc1C(=O)N[C@@H](C)c1ccc(C2CN(c3ccc(OCC4CC4)cc3)C2)cc1` [Example 3.25] gave an IC50 of 3010 nM.

In turn, `C[C@H](NC(=O)C1(C)CC1)c1ccc(C2CN(c3ccc(OCC4CC4)cc3)C2)cc1` [Example 3.26] yielded an IC50 of 2420 nM.

In turn, `C[C@H](NC(=O)C1CCCCO1)c1ccc(C2CN(c3ccc(OCC4CC4)cc3)C2)cc1` (some centres unmarked) [Example 3.27] gave an IC50 of 2860 nM.

`CC(C#N)C(=O)N[C@@H](C)c1ccc(C2CN(c3ccc(OCC4CC4)cc3)C2)cc1` (some centres unmarked) [Example 3.28] displayed an IC50 of 1210 nM. To `C[C@H](NC(=O)Cn1cncn1)c1ccc(C2CN(c3ccc(OCC4CC4)cc3)C2)cc1` [Example 3.29] belongs 1670 nM. In the case of `COCCC(=O)N[C@@H](C)c1ccc(C2CN(c3ccc(OCC4CC4)cc3)C2)cc1` [Example 3.30], the IC50 worked out at 2060 nM. To `CC(=O)Nc1nc(C(=O)N[C@@H](C)c2ccc(C3CN(c4ccc(OCC5CC5)cc4)C3)cc2)cs1` [Example 3.31] belongs 1640 nM. With `CC(C)C(=O)N[C@@H](C)c1ccc(C2CN(c3ccc(OCC4CC4)cc3)C2)cc1` [Example 3.32], the IC50 came to 1760 nM. The molecule `C[C@H](NC(=O)C1CC(F)C1)c1ccc(C2CN(c3ccc4c(c3)OCCO4)C2)cc1` (some centres unmarked) [Example 3.33] yielded an IC50 of 2870 nM. The same measure for `C[C@H](NC(=O)C1CNC(=O)C1)c1ccc(C2CN(c3ccc(OCC4CC4)cc3)C2)cc1` (some centres unmarked) [Example 3.34]: 2730 nM; for `C[C@H](NC(=O)C1(C#N)CC1)c1ccc(C2CN(c3ccc(OCC4CC4)cc3)C2)cc1` [Example 3.35]: 1460 nM. The same measure for `CC(=O)Nc1cccc(C(=O)N[C@@H](C)c2ccc(C3CN(c4ccc(OCC5CC5)cc4)C3)cc2)c1` [Example 3.36]: 2190 nM. Molecule `C[C@H](NC(=O)C1CC(F)C1)c1ccc(C2CN(c3ccc(OCC4CC4)cc3)C2)cc1` (some centres unmarked) [Example 3.37] had an IC50 of 1170 nM. The same measure for `Cc1nc(C(=O)N[C@@H](C)c2ccc(C3CN(c4ccc(OCC5CC5)cc4)C3)cc2)c(C)s1` [Example 3.38]: 1410 nM; for `C[C@H](NC(=O)c1ccns1)c1ccc(C2CN(c3ccc(OCC4CC4)cc3)C2)cc1` [Example 3.39]: 1520 nM.

In the case of `Cc1ncc(C(=O)N[C@@H](C)c2ccc(C3CN(c4ccc(OCC5CC5)cc4)C3)cc2)s1` [Example 3.40], it took 1310 nM to reach half-maximal inhibition (IC50). `CC(=O)NCCCC(=O)N[C@@H](C)c1ccc(C2CN(c3ccc(OCC4CC4)cc3)C2)cc1` [Example 3.41] had an IC50 of 2070 nM. To `CCC(=O)N[C@@H](C)c1ccc(C2CN(c3ccc(OCC4CC4)cc3)C2)cc1` [Example 3.42] belongs 940 nM; to `Cc1ccc(C(=O)N[C@@H](C)c2ccc(C3CN(c4ccc(OCC5CC5)cc4)C3)cc2)o1` [Example 3.43], 2570 nM. Take `C[C@H](NC(=O)c1cnco1)c1ccc(C2CN(c3ccc4c(c3)OCCO4)C2)cc1` [Example 3.44]: half-maximal inhibition (IC50) was put at 1130 nM.

The molecule `C[C@H](NC(=O)C(C)(C)F)c1ccc(C2CN(c3ccc(OCC4CC4)cc3)C2)cc1` [Example 3.46] had an IC50 of 1150 nM. To `CC(C(=O)N[C@@H](C)c1ccc(C2CN(c3ccc(OCC4CC4)cc3)C2)cc1)C(F)(F)F` (some centres unmarked) [Example 3.47] belongs 2700 nM; to `C[C@H](NC(=O)Cc1cncnc1)c1ccc(C2CN(c3ccc(OCC4CC4)cc3)C2)cc1` [Example 3.48], 1100 nM; to `CC(=O)Nc1ncc(C(=O)N[C@@H](C)c2ccc(C3CN(c4ccc(OCC5CC5)cc4)C3)cc2)s1` [Example 3.49], 1690 nM. In turn, `COCC(=O)N[C@@H](C)c1ccc(C2CN(c3ccc(OCC4CC4)cc3)C2)cc1` [Example 3.50] gave an IC50 of 2170 nM. The same measure for `CC(=O)Nc1cncc(C(=O)N[C@@H](C)c2ccc(C3CN(c4ccc(OCC5CC5)cc4)C3)cc2)c1` [Example 3.51]: 2180 nM. `C[C@H](NC(=O)c1cnco1)c1ccc(C2CN(c3ccc(OCC4CC4)cc3)C2)cc1` [Example 3.52] yielded a 50% inhibitory concentration (IC50) of 710 nM. In turn, `C#CCCC(=O)N[C@@H](C)c1ccc(C2CN(c3ccc(OCC4CC4)cc3)C2)cc1` [Example 3.53] came in with an IC50 of 2380 nM. The same measure for `CC(=O)Nc1nc(C(=O)N[C@@H](C)c2ccc(C3CN(c4ccc(OCC5CC5)cc4)C3)cc2)co1` [Example 3.54]: 2360 nM.
